Counter-ions that a name gives are not always drawn. Like-named read-outs stand apart in the source and are kept apart here.

Here are results for three compounds from patent publication US8036738B2, “Iontophoretic transdermal drug delivery system based on conductive polyaniline membrane” (priority 2006, dated 2011).

The nature of data set [1]: Release through PANi membrane in Franz diffusion cell, no iontophoresis.
On data set [2], the source says: To study the iontophoretic property of the PANi membranes, standard Ag|AgCl electrode was used.
The text on data set [3]: For the permeation study of PANi membrane based on aqueous-organic partitioning system, doxycycline HCl suspension in light mineral oil was used as the donor solution so that its permeation results would be compared with those from a hydrophilized polyvinylidene fluoride (PVDF) membrane in a general way.
The source holds these as a separate data set.

Data set [4] is described as follows: Iontophoretic release through mouse skin with and without PANi membrane. It is filed as in vitro ADME. To be noted: 0.3 mA/cm^2, EtOH:water 2:1 with 5% linoleic acid. As for the experimental part:
Skin membranes: Male hairless mice, strain SKH1, 8 weeks old, were supplied by Charles River Laboratories (Wilmington, Mass.). Mice were euthanized by carbon dioxide asphyxiation. Their skins were excised and kept at −30° C. until used.
In the case of skin membranes, the plastic bags containing the mouse skins were first taken out of the freezer and put into a beaker filled with room temperature water until they were defrosted. The skin samples were then removed from the plastic bags and cleaned of adhering fat deposits. They were then cut into small pieces of appropriate size and carefully mounted on top of the diffusion cells and left to equilibrate for 1 hour.
[formula] […] Results and Discussion
Three sets of iontophoretic experiments were carried out. In the first set, as a control test, traditional Ag|AgCl electrodes were used for the mouse skin only without the PANi membrane. In the other two sets, with the PANi membrane and the mouse skin together, either PANi|AgCl configuration or the Ag|AgCl configuration as electrodes was tested.
Therefore, instead of using a simple aqueous solution, 5% linoleic acid was added to the doxycycline HCl solution consisting of ethanol and water (EtOH: water=2:1, v/v). The reason for using ethanol was to increase the solubility of linoleic acid in the water.

The conditions of data set [5]: PVDF membrane, aqueous-organic partitioning system, ref [9], cited from earlier work.
The nature of data set [6]: Iontophoretic release through mouse skin with and without PANi membrane. It is filed as in vitro ADME. The following applies: PANi membrane and mouse skin together, iontophoresis, aqueous donor without chemical enhancer.
The mark [7] stands for this setting: PANi + skin, Ag|AgCl electrodes.
Where [8] appears, read: PANi + skin, PANi|AgCl electrodes.

`CCN(CC)CC(=O)Nc1c(C)cccc1C` [Lidocaine HCl, lidocaine hydrochloride]: in data set [1] (PANi membrane only), the “Q24 (24 hours accumulation in the receptor part)” value came to 3330 ± 1760 μg/cm^2. In addition, in data set [2], the Experimental flux is recorded as 411 ± 144 μg/cm^2 hr; the “change of flux versus passive release (Table 1), in words” value was “small decrease in the flux”; the release flux rate is 411±144 μg/cm^2-hr.
Consider `C[C@H]1c2cccc(O)c2C(=O)C2=C(O)[C@]3(O)C(=O)C(C(N)=O)=C(O)[C@@H](N(C)C)[C@@H]3[C@@H](O)[C@@H]21.Cl` [Doxycycline HCl, doxycycline hydrochloride], for which the Flux in data set [3] is on record as 31 ± 18 μg/cm^2 hr; in data set [4] (setting [7]), 0 μg/cm^2 hr; in data set [4] (setting [8]) it was 94.4 ± 81.2 μg/cm^2 hr; in data set [4] (Skin only, Ag|AgCl electrodes), 48.5 ± 8.5 μg/cm^2 hr; in data set [5], 146 ± 27 μg/cm^2 hr. The Permeability in data set [3] was 0.83 ± 0.56 ×10⁻⁶ cm/s; in data set [4] (setting [8]) it was 1.56 ± 1.33 ×10⁻⁶ cm/s; in data set [4] (Skin only, Ag|AgCl electrodes), 1.06 ± 0.186 ×10⁻⁶ cm/s; in data set [5] it was 8.3 ± 2.8 ×10⁻⁶ cm/s. Further, the Q in data set [3] is reported as 80 ± 46 μg/cm^2; in data set [5] (24 hr), 1440 ± 240 μg/cm^2. Also, the “release, in words” value is “no release” in data set [4] (PANi + skin, Ag|AgCl electrode set) and “no release was achieved” in data set [6]. Further, the Q24 in data set [4] (setting [7]) was 0 μg/cm^2; in data set [4] (setting [8]) it was 2760 ± 3980 μg/cm^2; in data set [4] (Skin only, Ag|AgCl electrodes), 1020 ± 642 μg/cm^2. Also, in data set [2], the Experimental flux is given as 793 ± 111 μg/cm^2 hr. In addition, the “amount a skin patch can deliver” value in data set [2] is “about 0.8 mg”. For the same compound, the “change of flux versus passive release (Table 1), in words” value in data set [2] is reported as “increased more than ten times”. The compound further registered a release flux rate in data set [2] of 793±111 μg/cm^2-hr.
Consider `Cn1c(=O)c2c(ncn2C)n(C)c1=O` [Caffeine, caffeine], for which, in data set [1] (PANi membrane only), the “Q24 (24 hours accumulation in the receptor part)” value is recorded as 573 ± 246 μg/cm^2. Further, in data set [1] (PANi membrane only, aqueous donor (about 200 mg/10 ml caffeine, doxycycline HCl; about 400 mg/10 ml lidocaine HCl)), the Permeability turned out to be 3.33 ± 2.5 ×10⁻⁶ cm/s. Besides, the Flux is recorded as 240 ± 177 μg/cm^2 hr in data set [1] (PANi membrane only, aqueous donor, steady state); 66.6 μg/cm^2 h in data set [1] (caffeine donor concentration 5 mg/ml, PANi membrane); 136.2 μg/cm^2 h in data set [1] (caffeine donor concentration 10 mg/ml, PANi membrane). Moreover, in data set [2], the “increase in flux vis-a-vis Table 1” value is “about 30%”. Further, the release flux rate in data set [2] is 305±79 μg/cm^2-hr.
